Experiments:
HCT116 cells = assay: Wound healing (scratch) assay, IncuCyte, with Loewe synergy calculation; type: cell-based, human; details: HCT116, three concentrations (statin 5/2.5/1.25 μM, niclosamide 1/0.5/0.25 μM), 48 h, vs DMSO
Description: For wound healing assays the HCT116 human colon cancer cell line was used. HCT116 cells are endogenously positive for MACC1 and S100A4 expression at the mRNA and protein level. In addition, they show decreased motility when either marker is inhibited. For wound healing (scratch) experiments cells were passaged to a density of 6×10^5 per ml and cultured for 48 h. Cells were then harvested and counted. For wound healing assays 1.2×10^5 cells were seeded in 100 μl RPMI supplemented with 10% FCS in 96 well Image Lock Plates (Essen Bioscience, Hertfordshire, UK). Cells were allowed to adhere for 6 hours. Wounds in the monolayer were applied using the IncuCyte WoundMaker (Essen Bioscience). After applying the wounds 100 μl of 2-fold concentrated drug solutions were added. DMSO treated and untreated samples served as controls. For each drug three different (niclosamide 1 μM, 0.5 μM and 0.25 μM, each statin 5 μM, 2.5 μM and 1.25 μM, MEK1 inhibitors 1 μM, 0.1 μM and 0.01 μM) concentrations and combinations thereof were applied, each in triplicate. Of all statins, we tested lovastatin, fluvastatin and atorvastatin. Wound closure was monitored every second hour in the IncuCyte system (Essen Bioscience). A pre-established image collection of HCT116 was used to teach the software detection of cells and wound. Wound confluency was expressed relative to DMSO treated controls. Synergy was analyzed using combenefit 2.021. DMSO treated samples were set to 100%. To calculate synergy, we used the Loewe isobole equation model. For the calculations dose-response curves for three single concentrations and the nine combinations thereof were used. The Loewe model was applied since there is a certain degree of target interaction already shown: first, active Wnt-signaling is important for MACC1 driving tumor progression and invasiveness (Lemos C, Clin Cancer Res, 2016) and second, S100A4 is a Wnt-signaling target gene and is found in the MACC1 induced secretome. The three single concentrations and nine combinations thereof were expressed relative to the control.

MACC1 [1] = assay: MACC1 mRNA expression by qRT-PCR in statin-treated HCT116 cells; type: cell-based, human; details: 1-10 μM statin, 24 h, relative to DMSO treated control
Description: (§1) HCT116 cells were treated with increasing amounts (1-10 μM) of different, clinically relevant statins dissolved in DMSO. Following 24 h of treatment cells were harvested for RNA and protein isolation. MACC1 mRNA expression was analyzed by qRT-PCR and is expressed relative to DMSO treated control samples. Protein amounts were analyzed by western blot.
(§2) HCT116, SW620 and SW480 colorectal carcinoma cells were purchased from ATCC. HCT116 cells were stably transduced with GFP/ MACC1-GFP plasmids to produce MACC1 overexpressing cell lines and SW620 cells were stably transduced by sh-control/sh-MACC1 plasmids to produce MACC1 knockdown cell lines. SW480 stable MACC1 overexpressing cell lines were created using pCDNA3.1 MACC1 plasmids and the control cells were produced using pCDNA3.1 empty plasmids followed clone selection using Gentamycin (Gibco). Knock-out of MACC1 in SW620 cells was achieved by CRISPR-Cas9 based gene editing followed by Puromycin (Gibco) based selection and subsequently the clones were picked using single cell sorting. Cells were cultured in RPMI supplemented with 10% FCS in 5% CO2 humidified atmosphere and sub passaged 2-3 times a week to maintain cultures subconfluent. Drugs were solubilized in DMSO, stock concentrations were 2 mM for niclosamide (Sigma-Aldrich, St Louis, Mo., USA), 2 mM for GSK1120212 (trametinib, Selleck Chemicals, Munich, Germany) and selumetinib (AZD6244, Selleck Chemicals, Munich, Germany) and 10 mM for statins (atorvastatin, lovastatin, fluvastatin, TCI Deutschland GmbH, Eschborn, Germany). All drugs were pre-diluted to 1000× final concentration in DMSO. Control cells were treated with equal amounts of DMSO.
RNA was isolated using the Gene Matrix Universal RNA Purification Kit (EURx, Poland) according to the manufacturer's instructions. RNA was quantified and 50 ng of RNA was reverse transcribed using a reaction mix containing MuLV reverse transcriptase, 10 mM MgCl2, 1× PCR-Buffer, 250 μM pooled dNTPs, 1U RNAse inhibitor and random hexamers (all from Applied Biosystems). The reaction was performed at 42° C. for 15 min, 99° C. for 5 min and subsequent cooling at 4° C. for 5 min. The cDNA was amplified using SYBR Green chemistry (Promega) using the LightCycler 480 II system (Roche Diagnostics) at the following PCR conditions: 95° C. for 2 min followed by 45 cycles of 95° C. for 7 s, 60° C. for 10 s and 72° C. for 20 s. The primers used for quantification are as follows: MACC1 Fwd 5′-[…]-3′ and Rev 5′-[…]-3′; S100A4 Fwd 5′-[…]-3′ and Rev 5′- […]-3′. Data analysis was performed with LightCycler 480 Software release 1.5.0 SP3 (Roche Diagnostics). Mean values was calculated from RT-qPCR duplicates. Each mean value of the expressed gene was normalized to the respective RP-II cDNA. […]

HCT116-CMVp-Luc cells = assay: Xenograft mouse model of liver metastasis, intrasplenic transplantation, bioluminescence imaging; type: in vivo, SCID-beige mice; details: daily p.o., alone or combined, vs solvent; for Metastasis formation to the liver (luminescence), reduced dose: statin 1.5 mg/kg, niclosamide 164 mg/kg; for Metastasis formation to the liver (luminescence), maximum human dose equivalent: statin 13 mg/kg, niclosamide 328 mg/kg
Description: Severe combined immunodeficiency (SCID)-beige mice (n=10 per group) were intrasplenically transplanted with HCT116-CMVp-Luc cells and treated daily with solvent, 13 mg/kg atorvastatin or fluvastatin (p.o.), 328 mg/kg niclosamide (p.o.) or the combination of niclosamide with one of the statins, at the indicated doses. These doses correspond to the maximum human doses established for the statins and niclosamide. Metastasis to the liver was analyzed with bioluminescence imaging after an intraperitoneal application of 150 mg/kg D-Luciferin at the experimental endpoint. Following whole animal imaging livers were removed and analyzed as isolated organs.
Severe combined immunodeficiency (SCID)-beige mice (n=10 per group) were intrasplenically transplanted with HCT116-CMVp-Luc cells and treated daily with solvent, 1.5 mg/kg atorvastatin or fluvastatin (p.o.), 164 mg/kg niclosamide (p.o.) or the combination of niclosamide with one of the statins, at the indicated doses. These doses therefore correspond to 12.5% of the maximum human dose for the statins and 50% of the maximum human dose for niclosamide. Metastasis to the liver was analyzed with bioluminescence imaging after an intraperitoneal application of 150 mg/kg D-Luciferin at the experimental endpoint. Following whole animal imaging livers were removed and analyzed as isolated organs.
All experiments were performed in accordance with the United Kingdom Coordinated Committee on Cancer Research (UKCCCR) guidelines and approved by the responsible local authorities (State Office of Health and Social Affairs, Berlin, Germany). For in vivo drug testing a xenograft mouse model was used as described earlier (Stein 2009 Nat Med, Sack 2011 J Natl Cancer Inst,
Juneja & Kobelt 2017 Plos Biol). In brief, HCT116-CMVp-LUC cells (5×10^5 cells per mouse, resuspended in 50 μL PBS) were intrasplenically transplanted into 6-week-old female SCID beige (SCID bg/bg) mice. The animals were assigned randomly into treatment groups.
Drugs were administered as a suspension using a gavage tube. Both niclosamide (either 328 mg/kg or 164 mg/kg) and a statin (atorvastatin or fluvastatin, at 13 mg/kg or 1.5 mg/kg) were administered daily, orally. Control mice were treated with the appropriate volume of solvent solution. The in vivo experimentation and luminescence imaging were conducted as described below.
For luminescence imaging, mice were anesthetized with 5% Isoflurane and received intraperitoneally 150 mg/kg D-luciferin (Biosynth, Staad, Switzerland) dissolved in sterile PBS. Anesthesia was maintained with 2% isoflurane. Imaging was performed with the NightOWL LB 981 system (Berthold Technologies, Bad Wildbad, Germany). ImageJ version 1.48v (NIH, Bethesda, Md.) was used for color coding of signal intensity (presenting a 256 grayscale) and overlay pictures.

MACC1 [2] = assay: MACC1 protein by western blot in statin-treated HCT116 cells; type: cell-based, human; details: 1-10 μM statin, 24 h
Description: as §1, §2
Whole cell protein extraction was performed on 5×10^5 HCT116 and SW620 cells. Cells were lysed using RIPA buffer (50 mM Tris-HCT pH 7.5, 150 mM NaCl, 1% Nonidet P-40) supplemented with cOmplete Protease inhibitor (Roche) for 30 min at 4° C. The lysate was clarified and the protein content was measured using the BCA Kit (Pierce). 20 μg protein lysate were denatured with LDS-containing NuPage Loading buffer (invitrogen) and DTT for 10 min.
Proteins were then resolved in 10% SDS-PAGE followed by protein transfer onto PVDF membranes (BioRAD). The membrane was blocked with 5% w/v skim milk powder and 1% w/v BSA in TBST (10 mM Tris-HCL pH 8, 150 mM NaCl and 0.1% Tween 20) for 60 min. The membrane was incubated overnight with the respective primary antibodies (anti-MACC1, #HPA020081, Sigma Aldrich; S100A4, #5114, Dako and β-Actin, #31430, Invitrogen; Lamin B1, #12586s, Cell Signalling). The membranes were washed and further incubated with corresponding horseradish peroxidase-tagged secondary antibodies (anti-mouse IgG HRP-conjugated, #31430, Invitrogen and anti-rabbit IgG HRP-conjugated, #W4018, Promega) for 60 min. […]

Structure (SMILES) | Wound closure (cellular motility), single agents (HCT116 cells) | MACC1 mRNA expression (MACC1 [1]) | Metastasis formation to the liver (luminescence), reduced dose (HCT116-CMVp-Luc cells) | Metastasis formation to the liver (luminescence), maximum human dose equivalent (HCT116-CMVp-Luc cells) | MACC1 protein (MACC1 [2])
CC(C)n1c(/C=C/[C@H](O)C[C@H](O)CC(=O)O)c(-c2ccc(F)cc2)c2ccccc21 (racemic) [fluvastatin] | dose dependent reduction of wound closure ability | shown to reduce | no reduction in metastasis formation | significantly reduced | shown to reduce
O=C(O)C[C@H](O)C[C@H](O)/C=C/c1c(C2CC2)nc2ccccc2c1-c1ccc(F)cc1 [Pitavastatin] |  | shown to reduce |  |  | shown to reduce
CC(C)c1c(C(=O)Nc2ccccc2)c(-c2ccccc2)c(-c2ccc(F)cc2)n1CC[C@@H](O)C[C@@H](O)CC(=O)O [atorvastatin] | dose dependent reduction of wound closure ability | shown to reduce | no reduction in metastasis formation | significantly reduced | shown to reduce
CC[C@H](C)C(=O)O[C@H]1C[C@@H](C)C=C2C=C[C@H](C)[C@H](CC[C@@H]3C[C@@H](O)CC(=O)O3)[C@H]21 [lovastatin] | dose dependent reduction of wound closure ability | shown to reduce |  |  | shown to reduce
O=C(Nc1ccc([N+](=O)[O-])cc1Cl)c1cc(Cl)ccc1O [niclosamide, 5-Chloro-N-(2-chloro-4-nitrophenyl)-2-hydroxybenzamide] | dose dependent reduction of wound closure ability |  | no reduction in metastasis formation | significantly reduced | 

Source: patent publication US20220125807A1, “PHARMACEUTICAL COMBINATION OF WNT SIGNALING AND MACC1 INHIBITORS” (Max-Delbrück-Centrum für Molekulare Medizin in der …, priority 2019, published 2022)
